{
  "source": "ChEMBL document CHEMBL5380816",
  "about": "“Inclusion of Nitrofurantoin into the Realm of Cancer Chemotherapy via Biology-Oriented Synthesis and Drug Repurposing” (J Med Chem, 2023)",
  "key": {"[1]": {"test_system": "Caco-2", "test": "Anticancer activity against human Caco-2 cells assessed as losing contact with neighbouring cells incubated at 0.098uM for 72 hrs by phase contrast inverted microscopic analysis", "assay_type": "functional, cell-based"}, "[2]": {"test_system": "HeLa", "test": "Anticancer activity against human HeLa cells assessed as absence of normal spindle shape incubated at 0.098uM for 72 hrs by phase contrast inverted microscopic analysis", "assay_type": "functional, cell-based"}, "[3]": {"test_system": "HeLa", "test": "Induction of apoptosis in human HeLa cells assessed as caspase3/7 activation at 0.098 uM using caspase-glo 3/7 as substrate relative to control", "assay_type": "functional"}, "[4]": {"test_system": "HepG2", "test": "Anticancer activity against human HepG2 cells assessed as losing contact with neighbouring cells incubated at 0.098uM for 72 hrs by phase contrast inverted microscopic analysis", "assay_type": "functional, cell-based"}, "[5]": {"test_system": "MCF7", "test": "Induction of apoptosis in human MCF7 cells assessed as viable cells incubated at 0.098 uM for 72 hrs by annexin V-FITC based propidium iodide dual staining assay (reference value: 99.9%)", "assay_type": "functional", "details": "read-out: Activity"}, "[6]": {"test_system": "MCF7", "test": "Induction of apoptosis in human MCF7 cells assessed as early apoptotic cells by measuring bright green patch incubated at 0.098 uM for 72 hrs by acridine orange-ethidium bromide dual staining based fluorescence microscopic analysis", "assay_type": "functional, cell-based"}, "[7]": {"test_system": "MCF7", "test": "Induction of apoptosis in human MCF7 cells assessed as late apoptotic cells by measuring orange to red patch incubated at 0.098 uM for 72 hrs by acridine orange-ethidium bromide dual staining based fluorescence microscopic analysis", "assay_type": "functional, cell-based"}, "[8]": {"test_system": "MCF7", "test": "Induction of apoptosis in human MCF7 cells assessed as total apoptotic cells incubated at 0.098 uM for 72 hrs by annexin V-FITC based propidium iodide dual staining assay (reference value: 0.04 %)", "assay_type": "functional"}, "[9]": {"test_system": "HepG2", "test": "Induction of apoptosis in human HepG2 cells assessed as viable cells incubated at 0.098 uM for 72 hrs by annexin V-FITC based propidium iodide dual staining assay (reference value: 97.27%)", "assay_type": "functional", "details": "read-out: Activity"}, "[10]": {"test_system": "HeLa", "test": "Induction of apoptosis in human HeLa cells assessed as early apoptotic cells by measuring bright green patch incubated at 0.098 uM for 72 hrs by acridine orange-ethidium bromide dual staining based fluorescence microscopic analysis", "assay_type": "functional, cell-based"}, "[11]": {"test_system": "Caco-2", "test": "Anticancer activity against human Caco-2 cells assessed as smaller cells incubated at 0.098uM for 72 hrs by phase contrast inverted microscopic analysis", "assay_type": "functional, cell-based"}, "[12]": {"test_system": "MCF7", "test": "Induction of apoptosis in human MCF7 cells assessed as early apoptotic cells incubated at 0.098 uM for 72 hrs by annexin V-FITC based propidium iodide dual staining assay (reference value: 0.06%)", "assay_type": "functional"}, "[13]": {"test_system": "Caco-2", "test": "Induction of apoptosis in human Caco-2 cells assessed as total apoptotic cells incubated at 0.017 uM for 72 hrs by annexin V-FITC based propidium iodide dual staining assay (reference value: 0.04 +/- 0.005%)", "assay_type": "functional"}, "[14]": {"test_system": "Caco-2", "test": "Induction of apoptosis in human Caco-2 cells assessed as viable cells incubated at 0.017 uM for 72 hrs by annexin V-FITC based propidium iodide dual staining assay (reference value: 99.89%)", "assay_type": "functional", "details": "read-out: Activity"}, "[15]": {"test_system": "HeLa", "test": "Induction of apoptosis in human HeLa cells assessed as caspase3/7 activation at 0.017 uM using caspase-glo 3/7 as substrate relative to control", "assay_type": "functional"}, "[16]": {"test_system": "HepG2", "test": "Induction of apoptosis in human HepG2 cells assessed as viable cells incubated at 0.017 uM for 72 hrs by annexin V-FITC based propidium iodide dual staining assay (reference value: 97.27%)", "assay_type": "functional", "details": "read-out: Activity"}, "[17]": {"test_system": "MCF7", "test": "Induction of apoptosis in human MCF7 cells assessed as late apoptotic cells incubated at 0.017 uM for 72 hrs by annexin V-FITC based propidium iodide dual staining assay (reference value: 0.01%)", "assay_type": "functional"}, "[18]": {"test_system": "HepG2", "test": "Induction of apoptosis in human HepG2 cells assessed as total apoptotic cells incubated at 0.017 uM for 72 hrs by annexin V-FITC based propidium iodide dual staining assay (reference value: 0.99 +/- 0.02%)", "assay_type": "functional"}, "[19]": {"test_system": "HeLa", "test": "Induction of apoptosis in human HeLa cells assessed as total apoptotic cells incubated at 0.11 uM for 72 hrs by annexin V-FITC based propidium iodide dual staining assay (reference value: 0 +/- 0.035%)", "assay_type": "functional"}, "[20]": {"test_system": "dsDNA", "test": "Induction of damage in dsDNA (unknown origin) assessed as disrupted by DNA by measuring decrease in fluorescence intensity at 100 uM incubated for 50 mins by EvaGreen based fluorescence plate reader analysis", "assay_type": "nucleic-acid assay"}, "[21]": {"test_system": "HepG2", "test": "Anticancer activity against human HepG2 cells assessed as losing contact with neighbouring cells incubated at 0.11 uM for 72 hrs by phase contrast inverted microscopic analysis", "assay_type": "functional, cell-based"}, "[22]": {"test_system": "Calf thymus DNA", "test": "Induction of calf thymus DNA damage assessed as disrupted by DNA by measuring decrease in fluorescence intensity by EvaGreen based fluorescence plate reader analysis", "assay_type": "nucleic-acid assay", "details": "Bos taurus; dose <= 500.0 µM"}, "[23]": {"test_system": "HeLa", "test": "Anticancer activity against human HeLa cells assessed as smaller cells incubated at 0.11 uM for 72 hrs by phase contrast inverted microscopic analysis", "assay_type": "functional, cell-based"}, "[24]": {"test_system": "MCF7", "test": "Induction of apoptosis in human MCF7 cells assessed as early apoptotic cells incubated at 0.11 uM for 72 hrs by annexin V-FITC based propidium iodide dual staining assay (reference value: 0.06%)", "assay_type": "functional"}, "[25]": {"test_system": "HepG2", "test": "Induction of apoptosis in human HepG2 cells assessed as necrotic cells incubated at 0.11 uM for 72 hrs by annexin V-FITC based propidium iodide dual staining assay (reference value: 0.33%)", "assay_type": "functional"}, "[26]": {"test_system": "dsDNA", "test": "Induction of damage in dsDNA (unknown origin) assessed as DNA disruption by measuring damage constant at 100 uM incubated for 2.5 hrs by EvaGreen based fluorescence plate reader analysis", "assay_type": "nucleic-acid assay"}, "[27]": {"test_system": "HeLa", "test": "Anticancer activity against human HeLa cells assessed as losing contact with neighbouring cells incubated at 0.097uM for 72 hrs by phase contrast inverted microscopic analysis", "assay_type": "functional, cell-based"}, "[28]": {"test_system": "HepG2", "test": "Induction of apoptosis in human HepG2 cells assessed as early apoptotic cells incubated at 0.097 uM for 72 hrs by annexin V-FITC based propidium iodide dual staining assay (reference value: 1.74%)", "assay_type": "functional"}, "[29]": {"test_system": "HepG2", "test": "Anticancer activity against human HepG2 cells assessed as losing contact with neighbouring cells incubated at 0.097uM for 72 hrs by phase contrast inverted microscopic analysis", "assay_type": "functional, cell-based"}, "[30]": {"test_system": "MCF7", "test": "Induction of apoptosis in human MCF7 cells assessed as late apoptotic cells by measuring orange to red patch incubated at 0.097 uM for 72 hrs by acridine orange-ethidium bromide dual staining based fluorescence microscopic analysis", "assay_type": "functional, cell-based"}, "[31]": {"test_system": "HeLa", "test": "Induction of apoptosis in human HeLa cells assessed as early apoptotic cells by measuring bright green patch incubated at 0.097 uM for 72 hrs by acridine orange-ethidium bromide dual staining based fluorescence microscopic analysis", "assay_type": "functional, cell-based"}, "[32]": {"test_system": "HepG2", "test": "Induction of oxidative stress in human HepG2 cells assessed as cell death by measuring redox alteration fluorescence incubated at 0.098 uM for 72 hrs in presence of dihydro dichlorofluorescein diacetate by DCFH-DA based flow cytometric analysis relative to control", "assay_type": "functional"}, "[33]": {"test_system": "HeLa", "test": "Induction of oxidative stress in human HeLa cells assessed as cell death by measuring redox alteration fluorescence incubated at 0.097 uM for 72 hrs in presence of dihydro dichlorofluorescein diacetate by DCFH-DA based flow cytometric analysis relative to control", "assay_type": "functional"}, "[34]": {"test_system": "MCF7", "test": "Induction of apoptosis in human MCF7 cells assessed as caspase3/7 activation at 0.097 uM using caspase-glo 3/7 as substrate relative to control", "assay_type": "functional"}},
  "note": "Activity calls are given as the source filed them. No cut-off for these calls is given here.",
  "data": [
    {"smiles": "O=C(CN1C(=O)CN(/N=C/c2ccc([N+](=O)[O-])o2)C1=O)c1ccc(Cl)cc1", "values": [
      {"measurement": "Activity", "setting": "[1]", "result": "Active"},
      {"measurement": "Activity", "setting": "[2]", "result": "Active"},
      {"measurement": "Activity", "setting": "[3]", "result": 75, "unit": "%"},
      {"measurement": "Activity", "setting": "[4]", "result": "Active"},
      {"measurement": "viability at 0.098 µM", "setting": "[5]", "result": 63.6, "unit": "%"},
      {"measurement": "Activity", "setting": "[6]", "result": "Active"},
      {"measurement": "Activity", "setting": "[7]", "result": "Active"},
      {"measurement": "Activity", "setting": "[8]", "result": 41.73, "unit": "%"},
      {"measurement": "viability at 0.098 µM", "setting": "[9]", "result": 55, "unit": "%"},
      {"measurement": "Activity", "setting": "[10]", "result": "Active"},
      {"measurement": "Activity", "setting": "[11]", "result": "Active"},
      {"measurement": "Activity", "setting": "[12]", "result": 4.77, "unit": "%"}
    ]},
    {"smiles": "O=c1[nH]cc(F)c(=O)[nH]1", "note": "[FLUOROURACIL]", "values": [
      {"measurement": "Activity", "setting": "[13]", "result": 3.68, "unit": "%"},
      {"measurement": "viability at 0.017 µM", "setting": "[14]", "result": 89.7, "unit": "%"},
      {"measurement": "Activity", "setting": "[15]", "result": 12, "unit": "%"},
      {"measurement": "viability at 0.017 µM", "setting": "[16]", "result": 88.4, "unit": "%"},
      {"measurement": "Activity", "setting": "[17]", "result": 2.26, "unit": "%"},
      {"measurement": "Activity", "setting": "[18]", "result": 3.9, "unit": "%"}
    ]},
    {"smiles": "C#CCN1C(=O)CN(/N=C/c2ccc([N+](=O)[O-])o2)C1=O", "values": [
      {"measurement": "Activity", "setting": "[19]", "result": 25.17, "unit": "%"},
      {"measurement": "Activity", "setting": "[20]", "result": "Active"},
      {"measurement": "Activity", "setting": "[21]", "result": "Active"},
      {"measurement": "Activity", "setting": "[22]", "result": "Dose-Dependent Effect"},
      {"measurement": "Activity", "setting": "[23]", "result": "Active"},
      {"measurement": "Activity", "setting": "[24]", "result": 7.55, "unit": "%"},
      {"measurement": "Activity", "setting": "[25]", "result": 3.66, "unit": "%"},
      {"measurement": "Activity", "setting": "[26]", "result": 8.41}
    ]},
    {"smiles": "NS(=O)(=O)c1ccc(-n2cc(CN3C(=O)CN(/N=C/c4ccc([N+](=O)[O-])o4)C3=O)nn2)cc1", "values": [
      {"measurement": "Activity", "setting": "[27]", "result": "Active"},
      {"measurement": "Activity", "setting": "[28]", "result": 21.02, "unit": "%"},
      {"measurement": "Activity", "setting": "[29]", "result": "Active"},
      {"measurement": "Activity", "setting": "[30]", "result": "Active"},
      {"measurement": "Activity", "setting": "[31]", "result": "Active"},
      {"measurement": "Activity", "setting": "[32]", "result": 48.51, "unit": "%"},
      {"measurement": "Activity", "setting": "[33]", "result": 53.5, "unit": "%"},
      {"measurement": "Activity", "setting": "[34]", "result": 58, "unit": "%"}
    ]}
  ]
}
